Results: US20190337932A1, “PROCESS FOR PREPARATION OF DACLATASVIR AND SALTS” (Gienmark Pharmaceuticals Limited, priority 2016, published 2019)
Structures can show the parent of a compound that is named as a salt.

How the values were obtained:
Assay type in all cases: physicochemical
[1] = Hygroscopicity at 25° C/60% and 40° C/75% relative humidity (description, water content by Karl Fischer); details: for hygroscopicity: conclusion of the study, Tables 4 and 5
Procedure: The study was carried out by subjecting 4 g of daclatasvir dihydrochloride hydrate of the present invention and literature Form N-2 of daclatasvir dihydrochloride to 25′C/60% relative humidity and 40′C/75% relative humidity. About 100 mg of sample was withdrawn each time at timely interval of 4, 12, 24 and 48 hours from the conditions is and tested for description and water content by Karl Fischer.

[2] = Photostability, light of 4000 lux at 25° C. for 2 weeks
Procedure: This study was carried out in a photostability testing chamber by subjecting daclatasvir dihydrochloride hydrate of the present invention to irradiation with light of 4000 lux at 25° C. for 2 weeks and the samples were tested for XRPD and stability.

[3] = Dynamic vapor system sorption/desorption isotherms; details: 25° C., relative humidity of 40% to 90%
Procedure: Sorption/desorption isotherms were measured using the Dynamic vapor System. Measurement was carried out at 25° C. and Relative humidity of 40% to 90%.

[4] = Transformation kinetics: slurrying in water at 25 to 30° C. for 24 hours, XRPD
Procedure: The study was carried out by slurrying 1 g of daclatasvir dihydrochloride hydrate of the present invention and literature Form N-2 of daclatasvir dihydrochloride, in water at 25 to 30° C. for 24 hours. The solid samples were then characterized by XRPD.

[5] = Physical stability on storing/drying at 50° C., 70° C., 100° C. (XRPD, Karl-Fisher)
Procedure: The physical stability of the daclatasvir dihydrochloride hydrate, of the present invention was determined by storing approximately 3.0 g of the sample a) at 50° C. b) at 70° C. c) at 100° C. The samples were tested by XRPD and Karl-Fisher titrator after 15 hours and 72 hours.

[6] = Solid state stability at accelerated stress conditions (40° C./75% relative humidity); details: 40° C./75% RH
Procedure: In one embodiment the present invention provides daclatasvir dihydrochloride hydrate, which has enhanced stability to heat and humidity. According to the present invention, the obtained daclatasvir dihydrochloride hydrate is subjected to accelerated stability at 40° C. and relative humidity (RH) 75%.
The solid state stability of the daclatasvir dihydrochloride hydrate was determined by storing approximately 3.0 g of the sample at accelerated stress conditions (40° C./75% relative humidity) for 15 days, 1 month, 3 months, 6 months. The samples were tested by XRPD and HPLC for final purity and degradation products.

[7] = listed as literature form N-2, dihydrochloride

Compound: COC(=O)N[C@H](C(=O)N1CCC[C@H]1c1ncc(-c2ccc(-c3ccc(-c4cnc([C@@H]5CCCN5C(=O)[C@@H](NC(=O)OC)C(C)C)[nH]4)cc3)cc2)[nH]1)C(C)C [daclatasvir dihydrochloride hydrate]
- Description ([1]; 25° C./60% relative humidity, 4 hours): Creamish
- Moisture content by KF ([1]; 25° C./60% relative humidity, 4 hours, dihydrochloride hydrate): 8.77%
- Description ([1]; 25° C./60% relative humidity, 12 hours): Creamish
- Moisture content by KF ([1]; 25° C./60% relative humidity, 12 hours, dihydrochloride hydrate): 8.86%
- Description ([1]; 25° C./60% relative humidity, 24 hours): Creamish
- Moisture content by KF ([1]; 25° C./60% relative humidity, 24 hours, dihydrochloride hydrate): 8.89%
- Description ([1]; 25° C./60% relative humidity, 48 hours): Creamish
- Moisture content by KF ([1]; 25° C./60% relative humidity, 48 hours, dihydrochloride hydrate): 8.91%
- Description ([1]; 25° C./60% relative humidity, Initial): Creamish
- Moisture content by KF ([1]; 25° C./60% relative humidity, Initial, dihydrochloride hydrate): 8.76%
- Description ([1]; 40° C./75% relative humidity, 4 hours): Creamish
- Moisture content by KF ([1]; 40° C./75% relative humidity, 4 hours, dihydrochloride hydrate): 8.76%
- Description ([1]; 40° C./75% relative humidity, 12 hours): Creamish
- Moisture content by KF ([1]; 40° C./75% relative humidity, 12 hours, dihydrochloride hydrate): 8.81%
- Description ([1]; 40° C./75% relative humidity, 24 hours): Creamish
- Moisture content by KF ([1]; 40° C./75% relative humidity, 24 hours, dihydrochloride hydrate): 8.86%
- Description ([1]; 40° C./75% relative humidity, 48 hours): Creamish
- Moisture content by KF ([1]; 40° C./75% relative humidity, 48 hours, dihydrochloride hydrate): 8.92%
- Description ([1]; 40° C./75% relative humidity, Initial): Creamish
- Moisture content by KF ([1]; 40° C./75% relative humidity, Initial, dihydrochloride hydrate): 8.76%
- hygroscopicity ([1]; dihydrochloride hydrate): non-hygroscopic
- XRPD pattern [2]: remains same as initial
- degradation in HPLC [2]: no degradation
- Adsorption desorption profile [3]: reversible
- Result (form by XRPD) ([4]; dihydrochloride hydrate): No discernible form conversion or dissociation
- KF ([5]; Drying at 50° C. for 15 hours): 8.03%
- KF ([5]; Drying at 50° C. for 72 hours): 8.12%
- Key XRPD peaks after drying ([5]; Drying at 50° C., 70° C. (15 and 72 hours) and 100° C. (15 hours), one merged cell): There was no change in XRPD
- KF ([5]; Drying at 70° C. for 15 hours): 8.03%
- KF ([5]; Drying at 70° C. for 72 hours): 8.02%
- KF ([5]; Drying at 100° C. for 15 hours): 8%
- KF ([5]; Initial form): 7.99%
- change in form ([5]; drying and humid conditions): no change in form
- HPLC Purity (%) ([6]; after 1 month): 99.9%
- XRPD ([6]; after 1 month): Same as initial
- HPLC Purity (%) ([6]; after 3 months): 99.89%
- XRPD ([6]; after 3 months): Same as initial
- HPLC Purity (%) ([6]; after 6 months): 99.88%
- XRPD ([6]; after 6 months): Same as initial
- HPLC Purity (%) ([6]; after 15 days): 99.9%
- XRPD ([6]; after 15 days): Same as initial
- chemical and physical stability ([6]; accelerated stability): chemically and physically very stable
- degradation in HPLC ([6]; accelerated stability): no degradation
- increase in the moisture content ([6]; accelerated stability): no substantial increase
- XRPD pattern ([6]; accelerated stability, dihydrochloride hydrate): remains the same as initial

Compound: COC(=O)N[C@H](C(=O)N1CCC[C@H]1c1ncc(-c2ccc(-c3ccc(-c4cnc([C@@H]5CCCN5C(=O)[C@@H](NC(=O)OC)C(C)C)[nH]4)cc3)cc2)[nH]1)C(C)C [daclatasvir dihydrochloride, reference compound]
- Moisture content by KF ([1]; 25° C./60% relative humidity, 4 hours, dihydrochloride): 2.45%
- Moisture content by KF ([1]; 25° C./60% relative humidity, 12 hours, dihydrochloride): 2.47%
- Moisture content by KF ([1]; 25° C./60% relative humidity, 24 hours, dihydrochloride): 2.44%
- Moisture content by KF ([1]; 25° C./60% relative humidity, 48 hours, dihydrochloride): 2.47%
- Moisture content by KF ([1]; 25° C./60% relative humidity, Initial, dihydrochloride): 2.12%
- Moisture content by KF ([1]; 40° C./75% relative humidity, 4 hours, dihydrochloride): 2.52%
- Moisture content by KF ([1]; 40° C./75% relative humidity, 12 hours, dihydrochloride): 2.54%
- Moisture content by KF ([1]; 40° C./75% relative humidity, 24 hours, dihydrochloride): 2.65%
- Moisture content by KF ([1]; 40° C./75% relative humidity, 48 hours, dihydrochloride): 2.77%
- Moisture content by KF ([1]; 40° C./75% relative humidity, Initial, dihydrochloride): 2.12%
- hygroscopicity [1, 7]: more hygroscopic than the form of the present invention
- Result (form by XRPD) ([4]; listed as Form-N2, dihydrochloride): Converted to crystalline daclatasvir
- Result (form by XRPD) [4, 7]: did not retain its form and was converted to the daclatasvir dihydrochloride hydrate of the present invention
